Data as given in ChEMBL document CHEMBL5729517, “BTK inhibitor compounds” (2023).

Legend:
[1] = target: Epidermal growth factor receptor (Homo sapiens, UniProt P00533); assay: BTK and EGFR in Vitro Assay: The BTK and EGFR biochemical assays utilize LANTHASCREEN® Eu Kinase Binding Assays from Thermo Fisher Scientific, measuring the binding of the kinase with a fluorinated tracer. The assay buffer consists of 50 mM HEPES pH 7.5, 0.01% BRU™-35, 10 mM MgCl2, 1 mM EGTA, and 1 mM DTT. […] The compounds are tested in 10 point dose response curves (100 μM-0.005 μM) with a maximum DMSO concentration of 1%. The assays are performed in 20 μL in low-volume 384-well white proxiplates. […] The signal ratio is converted to percent inhibition using the following equation: % Inhibition=100−[(Test Compound−Median Minimum)/(Median Maximum−Median Minimum)×100].
[2] = target: Tyrosine-protein kinase BTK (Homo sapiens, UniProt Q06187); assay: BTK and EGFR in Vitro Assay: The BTK and EGFR biochemical assays utilize LANTHASCREEN® Eu Kinase Binding Assays from Thermo Fisher Scientific, measuring the binding of the kinase with a […] tracer. The assay buffer consists of 50 mM HEPES pH 7.5, 0.01% BRU™-35, 10 mM MgCl2, 1 mM EGTA, and 1 mM DTT. The test compounds are diluted and added to the assay plate with a Labcyte ECHO® 555 liquid handler. The compounds are tested in 10 point dose response curves (100 μM-0.005 μM) with a maximum DMSO concentration of 1%. The assays are performed in 20 μL in low-volume 384-well white proxiplates. For the BTK assay, the concentration of full-length His-labeled BTK in the assay is 5 nM, the Eu-anti-His antibody is 2 nM, and the kinase tracer 236 is 60 nM. For the EGFR assay, the concentration of truncated (amino acids 668-1210) GST-labeled EGFR is 5 nM, the Eu-anti-GST antibody is 2 nM, and the kinase tracer 199 is 10 nM. The components of the assay (compound, enzyme/antibody, tracer) are assembled and incubated for 30 min prior to being read on a Perkin-Elmer EnVision with excitation at 340 nm, tracer emission at 665 nm, and antibody emission at 615 nm. The signal ratio is converted to percent inhibition using the following equation: % Inhibition=100−[(Test Compound−Median Minimum)/(Median Maximum−Median Minimum)×100].
Chain of Tyrosine-protein kinase BTK (Q06187 whole entry, the tested form may be a part): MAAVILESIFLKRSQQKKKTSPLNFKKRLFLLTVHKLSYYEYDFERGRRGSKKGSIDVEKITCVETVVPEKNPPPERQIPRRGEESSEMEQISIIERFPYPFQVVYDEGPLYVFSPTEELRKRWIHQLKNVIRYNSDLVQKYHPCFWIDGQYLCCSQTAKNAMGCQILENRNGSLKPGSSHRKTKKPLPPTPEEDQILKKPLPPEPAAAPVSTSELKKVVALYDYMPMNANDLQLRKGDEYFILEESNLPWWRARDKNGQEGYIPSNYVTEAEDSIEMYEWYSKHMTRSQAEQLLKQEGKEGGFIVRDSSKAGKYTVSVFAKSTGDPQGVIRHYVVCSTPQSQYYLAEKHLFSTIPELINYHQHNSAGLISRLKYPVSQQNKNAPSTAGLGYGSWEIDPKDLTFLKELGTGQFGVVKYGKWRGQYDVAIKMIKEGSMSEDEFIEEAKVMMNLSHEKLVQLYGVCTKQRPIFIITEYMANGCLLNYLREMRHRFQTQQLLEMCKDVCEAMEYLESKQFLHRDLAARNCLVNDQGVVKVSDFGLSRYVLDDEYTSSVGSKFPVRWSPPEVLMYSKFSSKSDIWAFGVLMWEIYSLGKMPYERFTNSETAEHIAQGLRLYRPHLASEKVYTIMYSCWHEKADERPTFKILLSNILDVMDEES

Chain of Epidermal growth factor receptor (P00533 whole entry): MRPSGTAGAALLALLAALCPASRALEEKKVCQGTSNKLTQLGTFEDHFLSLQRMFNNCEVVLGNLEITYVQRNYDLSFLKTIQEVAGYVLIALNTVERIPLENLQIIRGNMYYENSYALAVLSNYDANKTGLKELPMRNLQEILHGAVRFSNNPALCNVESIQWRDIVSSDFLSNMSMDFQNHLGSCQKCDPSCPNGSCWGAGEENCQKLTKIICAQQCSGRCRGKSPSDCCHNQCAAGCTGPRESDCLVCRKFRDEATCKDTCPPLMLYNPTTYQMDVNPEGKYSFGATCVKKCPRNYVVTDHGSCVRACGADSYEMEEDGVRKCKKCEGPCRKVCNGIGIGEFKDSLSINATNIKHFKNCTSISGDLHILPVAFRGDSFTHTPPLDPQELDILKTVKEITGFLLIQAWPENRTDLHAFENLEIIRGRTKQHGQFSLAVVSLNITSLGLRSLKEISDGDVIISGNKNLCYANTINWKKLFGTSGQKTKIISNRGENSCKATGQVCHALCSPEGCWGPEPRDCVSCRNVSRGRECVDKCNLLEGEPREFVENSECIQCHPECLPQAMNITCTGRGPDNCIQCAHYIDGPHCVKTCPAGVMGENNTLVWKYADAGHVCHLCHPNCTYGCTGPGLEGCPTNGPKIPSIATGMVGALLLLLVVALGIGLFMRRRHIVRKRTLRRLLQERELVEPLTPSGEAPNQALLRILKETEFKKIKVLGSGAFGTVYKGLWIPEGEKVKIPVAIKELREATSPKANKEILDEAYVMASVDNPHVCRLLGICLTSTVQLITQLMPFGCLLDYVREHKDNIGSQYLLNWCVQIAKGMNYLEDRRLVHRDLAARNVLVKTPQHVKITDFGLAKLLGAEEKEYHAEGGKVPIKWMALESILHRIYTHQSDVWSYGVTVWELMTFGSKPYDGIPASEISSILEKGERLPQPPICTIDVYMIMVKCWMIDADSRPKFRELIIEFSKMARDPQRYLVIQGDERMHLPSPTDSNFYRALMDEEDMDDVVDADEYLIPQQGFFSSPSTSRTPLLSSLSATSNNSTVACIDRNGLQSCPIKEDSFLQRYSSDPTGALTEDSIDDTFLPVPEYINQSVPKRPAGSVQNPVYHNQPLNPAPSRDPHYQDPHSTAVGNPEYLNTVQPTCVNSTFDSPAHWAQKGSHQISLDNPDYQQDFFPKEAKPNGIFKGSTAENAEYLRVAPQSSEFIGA

Compound | IC50 [1] | IC50 [2]
C=CC(=O)N1CC[C@H](Nc2cncc(-c3cnc(Nc4cccc(OC(F)F)c4)nc3)c2)C1 | 8.65 µM | 0.00608 µM
C=CC(=O)N1CC[C@H](Nc2cncc(-c3cnc(Nc4cccc(C)n4)nc3)c2)C1 | 16.1 µM | 0.0329 µM
C=CC(=O)N1CC[C@H](Nc2cncc(-c3cnc(Oc4cccc(OC(F)F)c4)nc3)c2)C1 | 28.5 µM | 0.0555 µM
C=CC(=O)N1CC(Nc2cncc(-c3cnc(Oc4cccc(C#N)c4)nc3)c2)C1 | 6.52 µM | 0.0758 µM
